Consider 31 compounds from patent publication US20060116390A1, “Hepatitis c virus inhibitors” (priority 2003, published 2006).

The structures appear in SMILES notation. Where two headings read alike, the source gives them in different places.

This experiment has as its system HCV proteins in Rep5.1 cells (replicon cell line). Nature of the experiment: Inhibitory activity of HCV: cell-based ELISA in replicon cell line Rep5.1 (decrease of HCV proteins). Also noted: species or system hepatitis C virus. Particulars: Hepatitis C virus, 72 h, Rep5.1 cells, 72 hours with drug. Put shortly:
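Rep5.1 replicon cells (5000/well, DMEM-10 with 500 μg/ml G418) were given serially diluted drug 4 h after seeding. After 72 h, cells were fixed in methanol/acetone and HCV proteins detected by cell-based ELISA using replicon-specific patient plasma antibodies. IC50 is the concentration giving 50% protein decrease versus the no-drug control.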
For orientation: An ELISA detects its analyte on a solid surface through an enzyme-linked reagent.

The mark [1] stands for this setting: concentration at which 50% of HCV proteins was decreased, Table 2, read-out: IC50.
[2] abbreviates: decrease of HCV proteins measured by HCV antibody, Table 1, read-out: Level (IC50 values classified).

The IC50 is the concentration that gives 50% inhibition. Turning to `CCOc1ccccc1CCOC(=O)C1=C(C)NC(=S)NC1CF` (centres unmarked) [Compound 274, 4-fluoromethyl-6-methyl-2-thioxo-1,2,3,4-tetrahydro-pyrimidine-5-carboxylic acid 2-(2-ethoxy-phenyl)-ethyl ester], the IC50 by setting is: under setting [1], greater than 100000 nM; under setting [2], greater than 20000 nM.
Turning to `CC1=C(C(=O)OC2CCN(Cc3ccccc3)CC2)CNC(=S)N1` [Compound 86, 6-methyl-2-thioxo-1,2,3,4-tetrahydro-pyrimidine-5-carboxylic acid 1-benzyl-piperidin-4-yl ester], the concentration for half-maximal inhibition (IC50) was greater than 100000 nM under setting [1] and greater than 20000 nM under setting [2].
For `CC1=C(C(=O)OCc2ccc(N(C)C)cc2)CNC(=S)N1` [Compound 79, 6-methyl-2-thioxo-1,2,3,4-tetrahydro-pyrimidine-5-carboxylic acid 4-dimethylamino-benzyl ester], the IC50 reads like this: under setting [1], 1300 nM; under setting [2], 1000 to 10000 nM.
As to `CC1=C(C(=O)OCCc2cccc(C)c2)C(CO)NC(=S)N1` (centres unmarked) [64″, 4-hydroxymethyl-6-methyl-2-thioxo-1,2,3,4-tetrahydro-pyrimidine-5-carboxylic acid 2-m-tolyl-ethyl ester], the IC50 is 5500 nM under setting [1] and 1000 to 10000 nM under setting [2].
The like results for `CC(=O)SCCOC(=O)OCC1NC(=S)NC(C)=C1C(=O)OCCc1cccc([N+](=O)[O-])c1` (centres unmarked) [79″, 4-(2-acetylsulfanyl-ethoxycarbonyloxymethyl)-6-methyl-2-thioxo-1,2,3,4-tetrahydro-pyrimidine-5-carboxylic acid 2-(3-nitro-phenyl)-ethyl ester] were, in that order, 6200 nM and 1000 to 10000 nM.
The corresponding values for `COC1=C(C(=O)OCc2ccccc2)CNC(=S)N1` [Compound 63, 6-methoxy-2-thioxo-1,2,3,4-tetrahydro-pyrimidine-5-carboxylic acid benzyl ester] are greater than 100000 nM and greater than 20000 nM.
The corresponding values for `O=C(OCCCc1cccs1)C1=CNC(=S)NC1CF` (centres unmarked) [16′, 4-fluoromethyl-2-thioxo-1,2,3,4-tetrahydro-pyrimidine-5-carboxylic acid 3-thiophen-2-yl-propyl ester] are 2000 nM and 1000 to 10000 nM.
For `CC1=C(C(=O)OCc2ccc3nc(C)oc3c2)CNC(=S)N1` [Compound 256, 6-methyl-2-thioxo-1,2,3,4-tetrahydro-pyrimidine-5-carboxylic acid 2-methyl-benzoxazol-6-ylmethyl ester], the IC50 by setting is: under setting [1], 3400 nM; under setting [2], 1000 to 10000 nM.
The like results for `CC1=C(C(=O)OCCc2cccc(OC(F)(F)F)c2)C(CO)NC(=S)N1` (centres unmarked) [75″, 4-hydroxymethyl-6-methyl-2-thioxo-1,2,3,4-tetrahydro-pyrimidine-5-carboxylic acid 2-(3-trifluoromethoxy-phenyl)-ethyl ester] were, in that order, less than 400 nM and less than 1000 nM.
As for `CC1=C(C(=O)OCCS(=O)(=O)c2ccc(C)cc2)CNC(=S)N1` [Compound 201, 6-methyl-2-thioxo-1,2,3,4-tetrahydro-pyrimidine-5-carboxylic acid 2-(toluene-4-sulfonyl)-ethyl ester], the IC50 is 13000 nM under setting [1] and 10000 to 20000 nM under setting [2].
In the case of `CC1=C(C(=O)OCc2ccc(-c3ccc([N+](=O)[O-])cc3)o2)CNC(=S)N1` [Compound 128, 6-methyl-2-thioxo-1,2,3,4-tetrahydro-pyrimidine-5-carboxylic acid 5-(4-nitro-phenyl)-furan-2-ylmethyl ester], the IC50 runs as follows: under setting [1], 1000 nM; under setting [2], less than 1000 nM.
Take `CC1=C(C(=O)OCCc2ccc(F)cc2Cl)C(CF)NC(=S)N1` (centres unmarked) [86′, 4-fluoromethyl-6-methyl-2-thioxo-1,2,3,4-tetrahydro-pyrimidine-5-carboxylic acid 2-(2-chloro-4-fluoro-phenyl)-ethyl ester]: the IC50 is less than 400 nM under setting [1] and less than 1000 nM under setting [2].
The like results for `CC1=C(C(=O)OCc2cc(Cl)cc(Cl)c2)C(CF)NC(=S)N1` (centres unmarked) [89′, 4-fluoromethyl-6-methyl-2-thioxo-1,2,3,4-tetrahydro-pyrimidine-5-carboxylic acid 3,5-dichloro-benzyl ester] were, in that order, 400 nM and less than 1000 nM.
The like results for `CC1=C(C(=O)OCCc2scnc2C)CNC(=S)N1` [Compound 24, 6-methyl-2-thioxo-1,2,3,4-tetrahydro-pyrimidine-5-carboxylic acid 2-(4-methyl-thiazol-5-yl)-ethyl ester] were, in that order, 70000 nM and greater than 20000 nM.
The corresponding values for `CC1=C(C(=O)OCCCc2ccc(C(F)(F)F)cc2)CNC(=S)N1` [Compound 107, 6-methyl-2-thioxo-1,2,3,4-tetrahydro-pyrimidine-5-carboxylic acid 3-(4-trifluoromethyl-phenyl)-propyl ester] are less than 400 nM and less than 1000 nM.
On to `CC1=C(C(=O)OCc2cccs2)CNC(=S)N1` [Compound 153, 6-methyl-2-thioxo-1,2,3,4-tetrahydro-pyrimidine-5-carboxylic acid thiophen-2-ylmethyl ester], for which the IC50 under setting [1] stood at 2700 nM and the IC50 under setting [2] lay in the range of 1000 to 10000 nM.
As to `CC1=C(C(=O)OCC=Cc2ccsc2)CNC(=S)N1` [Compound 244, 6-methyl-2-thioxo-1,2,3,4-tetrahydro-pyrimidine-5-carboxylic acid 3-thiophen-3-yl-allyl ester], the IC50 reads like this: under setting [1], 500 nM; under setting [2], less than 1000 nM.
The corresponding values for `CCCCC(C)OC(=O)C1=C(C)NC(=S)NC1` (centres unmarked) [Compound 39, 6-methyl-2-thioxo-1,2,3,4-tetrahydro-pyrimidine-5-carboxylic acid 1-methyl-pentyl ester] are 500 nM and less than 1000 nM.
The corresponding values for `CC1=C(C(=O)OCCCc2ccsc2F)C(CO)NC(=S)N1` (centres unmarked) [13″, 4-hydroxymethyl-6-methyl-2-thioxo-1,2,3,4-tetrahydro-pyrimidine-5-carboxylic acid 3-(2-fluoro-thiophen-3-yl)-propyl ester] are 5300 nM and 1000 to 10000 nM.
The like results for `CCOC(=O)CCCC1=C(C(=O)OCc2ccccc2)CNC(=S)N1` [Compound 169, 6-(3-ethoxycarbonyl-propyl)-2-thioxo-1,2,3,4-tetrahydro-pyrimidine-5-carboxylic acid benzyl ester] were, in that order, 9000 nM and 1000 to 10000 nM.
In the case of `COc1cccc(COC(=O)C2=C(C)NC(=S)NC2)c1` [Compound 120, 6-methyl-2-thioxo-1,2,3,4-tetrahydro-pyrimidine-5-carboxylic acid 3-methoxy-benzyl ester], the IC50 is 1000 nM under setting [1] and 1000 to 10000 nM under setting [2].
The like results for `CC1=C(C(=O)OCCc2cc(C)cc(C)c2)CNC(=S)N1` [Compound 175, 6-methyl-2-thioxo-1,2,3,4-tetrahydro-pyrimidine-5-carboxylic acid 2-(3,5-dimethylphenyl)-ethyl ester] were, in that order, less than 400 nM and less than 1000 nM.
On to `CCc1ccc(CCOC(=O)C2=C(C)NC(=S)NC2CF)o1` (centres unmarked) [23′, 4-fluoromethyl-6-methyl-2-thioxo-1,2,3,4-tetrahydro-pyrimidine-5-carboxylic acid 2-(5-ethyl-furan-2-yl)-ethyl ester], for which the IC50 is, setting by setting: under setting [1], 700 nM; under setting [2], less than 1000 nM.
The like results for `CC1=C(C(=O)OCCCc2cc3ccccc3s2)C(CF)NC(=S)N1` (centres unmarked) [58′, 4-fluoromethyl-6-methyl-2-thioxo-1,2,3,4-tetrahydro-pyrimidine-5-carboxylic acid 3-benzo[b]thiophen-2-yl-propyl ester] were, in that order, 8000 nM and 1000 to 10000 nM.
On to `CC1=C(C(=O)OCCc2csc([N+](=O)[O-])c2)CNC(=S)N1` [26′, 6-methyl-2-thioxo-1,2,3,4-tetrahydro-pyrimidine-5-carboxylic acid 2-(5-nitro-thiophen-3-yl)-ethyl ester], for which the IC50 is, setting by setting: under setting [1], 900 nM; under setting [2], less than 1000 nM.
With `CC1=C(C(=O)OCCc2ccsc2F)C(CF)NC(=S)N1` (centres unmarked) [1′, 4-fluoromethyl-6-methyl-2-thioxo-1,2,3,4-tetrahydro-pyrimidine-5-carboxylic acid 2-(2-fluoro-thiophen-3-yl)-ethyl ester], the IC50 is, setting by setting: under setting [1], 1800 nM; under setting [2], 1000 to 10000 nM.
The like results for `O=C(OCc1ccccc1)C1=C(CCc2ccccc2)NC(=S)NC1` [Compound 19, 6-phenethyl-2-thioxo-1,2,3,4-tetrahydro-pyrimidine-5-carboxylic acid benzyl ester] were, in that order, 1600 nM and less than 1000 nM.
The corresponding values for `CC1=C(C(=O)OCCCCc2ccsc2)C(CF)NC(=S)N1` (centres unmarked) [61′, 4-fluoromethyl-6-methyl-2-thioxo-1,2,3,4-tetrahydro-pyrimidine-5-carboxylic acid 4-thiophen-3-yl-butyl ester] are 3000 nM and 1000 to 10000 nM.
The corresponding values for `CC1=C(C(=O)OCc2ccccc2)C(CF)NC(=S)N1` (centres unmarked) [Compound 211, 4-fluoromethyl-6-methyl-2-thioxo-1,2,3,4-tetrahydro-pyrimidine-5-carboxylic acid benzyl ester] are 16000 nM and 10000 to 20000 nM.
With `CC1=C(C(=O)OCc2ccccc2C(F)(F)F)CNC(=S)N1` [Compound 100, 6-methyl-2-thioxo-1,2,3,4-tetrahydro-pyrimidine-5-carboxylic acid 2-trifluoromethyl-benzyl ester], the 50% inhibitory concentration (IC50) reads like this: under setting [1], less than 400 nM; under setting [2], less than 1000 nM.
Turning to `CC1=C(C(=O)OCCc2cccc(Cl)c2)C(COC(=O)OCC2COC(=O)O2)NC(=S)N1` (centres unmarked) [88″, 6-methyl-4-(2-oxo-[1,3]dioxolan-4-ylmethoxycarbonyloxymethyl)-2-thioxo-1,2,3,4-tetrahydro-pyrimidine-5-carboxylic acid 2-(3-chloro-phenyl)-ethyl ester], the IC50 under setting [1] was determined as 900 nM and the concentration for half-maximal inhibition (IC50) under setting [2] was less than 1000 nM.
